From patent publication US7109193B2, “Tricyclic diazepines tocolytic oxytocin receptor antagonists” (Wyeth, priority 2001, dated 2006)

Biological target: T1, human vasopressin V1a receptor subtype (Homo sapiens, UniProt P37288)
T1 construct: host or cells: CHO cells (pZeoSV vector for the Thibonnier line)
Experiment: Vasopressin binding in Chinese Hamster Ovary cell membranes expressing human vasopressin V1a subtype receptors
Conditions: 100 nM, CHO cell membranes, [3H]Manning ligand, values without parentheses
Summary of the method: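 Membranes from CHO cells expressing human V1a receptor were incubated with [3H]Manning ligand (added as 20 μL of 8 nM) in pH 7.4 Tris buffer with MgCl2, BSA and protease inhibitors, 60 min at room temperature. Bound radioactivity was counted after filtration; values are percent inhibition at a stated concentration or IC50.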

T1 sequence (P37288 whole entry): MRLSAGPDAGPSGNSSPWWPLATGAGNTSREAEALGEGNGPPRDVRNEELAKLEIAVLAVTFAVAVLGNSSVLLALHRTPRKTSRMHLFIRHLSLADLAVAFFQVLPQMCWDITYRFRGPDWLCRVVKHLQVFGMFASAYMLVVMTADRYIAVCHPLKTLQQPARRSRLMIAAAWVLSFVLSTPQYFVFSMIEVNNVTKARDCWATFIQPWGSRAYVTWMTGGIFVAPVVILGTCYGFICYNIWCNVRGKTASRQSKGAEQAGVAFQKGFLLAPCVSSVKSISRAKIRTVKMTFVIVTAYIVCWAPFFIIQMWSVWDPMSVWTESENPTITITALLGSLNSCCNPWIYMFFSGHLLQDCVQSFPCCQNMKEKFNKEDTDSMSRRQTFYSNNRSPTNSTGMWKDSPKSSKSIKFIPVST

inhibition at 0.1 µM [%]	SMILES
8	COc1ccccc1-c1ccc(C(=O)N2Cc3ccc(C(=O)N4CCCN(C)CC4)n3Cc3ccccc32)cc1OC [Example 69, {10-[(2,2′-Dimethoxy[1,1′-biphenyl]-4-yl)carbonyl]-10,11-dihydro-5H-pyrrolo[2,1-c][1,4]benzodiazepin-3-yl}(4-methyl-1,4-diazepan-1-yl)methanone]
5	COc1ccccc1-c1ccc(C(=O)N2Cc3ccc(C(=O)N4CCN(C)CC4)n3Cc3ccccc32)cc1C [Example 49, {10-[(2′-Methoxy-2-methyl[1,1′-biphenyl]-4-yl)carbonyl]-10,11-dihydro-5H-pyrrolo[2,1-c][1,4]benzodiazepin-3-yl}(4-methyl-1-piperazinyl)methanone]
10	COc1cc(C(=O)N2Cc3ccc(C(=O)N4CCN(CCN5CCOCC5)CC4)n3Cc3ccccc32)ccc1-n1c(C)ccc1C [Example 317, {10-[4-(2,5-Dimethyl-1H-pyrrol-1-yl)-3-methoxybenzoyl]-10,11-dihydro-5H-pyrrolo[2,1-c][1,4]benzodiazepin-3-yl}{4-[2-(4-morpholinyl)ethyl]-1-piperazinyl}methanone]

Second part, the molecule before the results:

SMILES	inhibition at 0.1 µM [%]
Cc1cc(C(=O)N2Cc3ccc(C(=O)N[C@H]4CN5CCC4CC5)n3Cc3ccccc32)ccc1-c1ccccc1C(F)(F)F [Example 301, N-[(3R)-1-Azabicyclo[2.2.2]oct-3-yl]-10-{[2-methyl-2′-(trifluoromethyl)[1,1′-biphenyl]-4-yl]carbonyl}-10,11-dihydro-5H-pyrrolo[2,1-c][1,4]benzodiazepine-3-carboxamide]	1
Cc1cc(C(=O)N2Cc3ccc(C(=O)n4ccnc4)n3Cc3ccccc32)ccc1-c1ccccc1C(F)(F)F [Example 294, 1H-Imidazol-1-yl(10-{[2-methyl-2′-(trifluoromethyl)[1,1′-biphenyl]-4-yl]carbonyl}-10,11-dihydro-5H-pyrrolo[2,1-c][1,4]benzodiazepin-3-yl)methanone]	-3
COc1cccc(-c2ccc(C(=O)N3Cc4ccc(C(=O)n5ccnc5)n4Cc4ccccc43)cc2C)c1 [Example 289, 1H-Imidazol-1-yl-{10-[(3′-methoxy-2-methyl[1,1′-biphenyl]-4-yl)carbonyl]-10,11-dihydro-5H-pyrrolo[2,1-c][1,4]benzodiazepin-3-yl}methanone]	6
COc1ccccc1-c1ccc(C(=O)N2Cc3ccc(C(=O)N[C@H]4CN5CCC4CC5)n3Cc3ccccc32)cc1C [Example 298, N-[(3R)-1-Azabicyclo[2.2.2]oct-3-yl]-10-[(2′-methoxy-2-methyl[1,1′-biphenyl]-4-yl)carbonyl]-10,11-dihydro-5H-pyrrolo[2,1-c][1,4]benzodiazepine-3-carboxamide]	20
Cc1ccccc1-c1ccc(C(=O)N2Cc3ccc(C(=O)N4CCN(C)CC4)n3Cc3ccccc32)cc1 [Example 52, {10-[(2′-Methyl[1,1′-biphenyl]-4-yl)carbonyl]-10,11-dihydro-5H-pyrrolo[2,1-c][1,4]benzodiazepin-3-yl}(4-methyl-1-piperazinyl)methanone]	54
COc1cc(-c2ccccc2C)c(Cl)cc1C(=O)N1Cc2ccc(C(=O)NCCCN(C)C)n2Cc2ccccc21 [Example 78, 10-[(6-Chloro-3-methoxy-2′-methyl[1,1′-biphenyl]-4-yl)carbonyl]-N-[3-(dimethylamino)propyl]-10,11-dihydro-5H-pyrrolo[2,1-c][1,4]benzodiazepine-3-carboxamide]	-3
